From patent US20060099712A1, “Correlation of anti-cancer activity of dyes with redox potentials” (Eastman Kodak Company, priority 2004, published 2006)

System: CX-1 Human Colon Carcinoma
Test: Clonogenic dye screening assay, CX-1 cells (IC50)
Type: cell-based
Conditions: for CX (IC50 in the CX-1 cell line): 3 hrs treatment, colonies after 7-10 days, unit from method b117-118; for CV/CX (selectivity, kill ratio): ratio of IC50 in normal CV-1 line to IC50 in carcinoma CX-1 line
Method in brief: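 Cells seeded 16-30 h ahead (2000 CX-1 or 1000 CV-1 per well), exposed to serially diluted dyes for 3 h at 37 °C, rinsed three times, then grown into colonies. Eight-point curves spanned 0.32-0.0015 μg/mL (CX-1) and 3.2-0.025 μg/mL (CV-1). IC50 is the concentration killing 50% of cells.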

CX (IC50 in the CX-1 cell line)	Structure (SMILES)	CV/CX (selectivity, kill ratio)
0.02 µg/mL	COc1cccc2c1CCC1=C2N(C)/C(=C/C=C/c2sc3c([n+]2C)-c2cccc(OC)c2CC3)S1 [drawing 43|M|4,5-H, 6-MeO|4,5-H, 6-MeO]	0.75
0.20 µg/mL	CN1C2=C(CCc3ccccc32)S/C1=C\C=C\c1sc2c([n+]1C)-c1ccccc1CC2 [drawing 43|M|4,5-H|4,5-H]	4.0
0.08 µg/mL	COc1cccc2c3c(ccc12)S/C(=C\C=C\c1sc2ccc4c(OC)cccc4c2[n+]1C)N3C [drawing 43|M|6-MeO|6-MeO]	10.0
0.09 µg/mL	COc1ccc2c3c(ccc2c1)S/C(=C\C=C\c1sc2ccc4cc(OC)ccc4c2[n+]1C)N3C [drawing 43|M|7-MeO|7-MeO]	35.5
0.02 µg/mL	COc1ccc2ccc3c(c2c1)N(C)/C(=C/C=C/c1sc2ccc4ccc(OC)cc4c2[n+]1C)S3 [drawing 43|M|8-MeO|8-MeO]	40.0
–	CN1/C(=C/C=C/c2sc3ccc4ccccc4c3[n+]2C)Sc2ccc3ccccc3c21 [drawing 43|M|H|H]	10.0
–	CC[n+]1c(/C=C/C=C2\Oc3cc([N+](=O)[O-])c(Cl)cc3N2C)sc2cc([N+](=O)[O-])ccc21 [drawing 44|E/M|6-N03|5-Cl, 6-N03]	10.0
–	CCN1/C(=C\C=C\c2sc3ccccc3[n+]2CC)Oc2ccc(Cl)cc21 [drawing 44|Et|H|5-Cl]	27.3
–	CCN1/C(=C/C=C/c2sc3cc(OC)c(OC)cc3[n+]2CC)Oc2ccccc21 [drawing 44|E|5,6-MeO|H]	12.5
–	CCN1/C(=C/C=C/c2sc3cc(C)c(C)cc3[n+]2CC)Oc2ccccc21 [drawing 44|E|5,6-Me|H]	>20.0
–	CCN1/C(=C/C=C/c2sc3cc(O)c(O)cc3[n+]2CC)Oc2ccccc21 [drawing 44|E|5,6-OH|H]	8.0
–	CCN1/C(=C/C=C/c2sc3ccc(C#N)cc3[n+]2CC)Oc2ccccc21 [drawing 44|E|5-CN|H]	>13.3
–	CCN1/C(=C/C=C/c2sc3ccccc3[n+]2CC)Oc2cccc(O)c21 [drawing 44|E|H|4-OH]	0.43
–	CCN1/C(=C/C=C/c2sc3ccccc3[n+]2CC)Oc2cc(C)c(C)cc21 [drawing 44|E|H|5,6-Me]	>20.0
–	CCN1/C(=C/C=C/c2sc3ccccc3[n+]2CC)Oc2cc(C)c(Cl)cc21 [drawing 44|E|H|5-Cl, 6-Me]	11.4
–	CCN1/C(=C/C=C/c2sc3ccccc3[n+]2CC)Oc2ccc(C)cc21 [drawing 44|E|H|5-Me]	4.0
–	CCN1/C(=C/C=C/c2sc3ccccc3[n+]2CC)Oc2ccc(NS(=O)(=O)c3ccccc3)cc21 [drawing 44|E|H|5-NHSO2Ph]	16.7
0.08 µg/mL	CCN1/C(=C/C=C/c2oc3cc4c(cc3[n+]2CC)OCO4)Oc2cc3c(cc21)OCO3 [drawing 45|5,6-OCO—|5,6-OCO—]	5.0
–	CCN1/C(=C/C=C/c2oc3c(Cl)c(C)c(Cl)cc3[n+]2CC)Oc2c1cc(Cl)c(Cl)c2C [drawing 45|5,7-Cl, 6-Me|5,6-Cl, 7-Me]	>10.0
>.32 µg/mL	CCN1/C(=C\C=C\c2oc3ccc(C(F)(F)F)cc3[n+]2CC)Oc2ccc(C(F)(F)F)cc21 [drawing 45|5-CF3|5-CF3]	10.0
>.32 µg/mL	CCOC(=O)c1ccc2c(c1)N(CC)/C(=C/C=C/c1oc3ccc(C(=O)OCC)cc3[n+]1CC)O2 [drawing 45|5-CO2Et|5-CO2Et]	10.0
0.16 µg/mL	CCN1C(=CC=Cc2oc3cc(C)c(Cl)cc3[n+]2CC)Oc2cc(C)c(Cl)cc21 [drawing 45|5-Cl, 6-Me|5-Cl, 6-Me]	12.5
